According to US11266640B2, “Polycyclic compound acting as IDO inhibitor and/or IDO-HDAC dual inhibitor” (Hangzhou Innogate Pharma Co., Ltd., priority 2017, dated 2022):

Columns and labels:
IDO = molecular target: T1, IDO (Homo sapiens, UniProt P14902); assay: Hela cell-based IDO inhibitory activity test (IFNγ added); settings: Hela cells with IFNγ, 48 hours incubation, OD 480 nm
T1 construct: endogenous in cells; host or cells: HeLa cells treated with IFNγ
Method: 2. Hela Cell-Based IDO Inhibitory Activity Test Method
The first step: cell plating. Prepare complete medium and mix well. Cell lines that are in good growth state are selected. Remove the cell culture flask from the incubator and check the cell name, media type and cell generation number on the bottle. The medium was discarded, digested with trypsin, and after digestion, the cells were neutralized with serum-containing medium, and the cells were blown to cause the cells to fall off. Pipette the cell suspension into a centrifuge tube and centrifuge at a speed of 800-1000 for 3-5 minutes. Aspirate the cell supernatant from the centrifuge tube. Add an appropriate volume of medium to the tube and gently blister to resuspend the cells. Count using a Vi-Cell XR cytometer. Adjust the cell suspension to the appropriate concentration. The cell suspension was added to a white-well 96-well plate at 80 μl/well according to the schematic below. The second step: preparation and addition of the compound. Compounds were formulated in DMSO at 600 μM and the compounds were diluted in DMSO according to a multiple of the following table to give 6 concentration gradients of the compound. The 200× compound prepared in DMSO was formulated into a 10× dilution solution in proportion to the corresponding cell culture medium. After 24 hours of cell seeding, 10 μL of 10× corresponding compound dilution and 10 μL of 10×IFNγ were added to each well. Incubate for 48 hours in a 37° C. incubator. The third step: detection and analysis. Cell morphology was observed under an inverted microscope. 80 μL of the supernatant was added to a 3894 plate, 10 μL of 6.1 N trichloroacetic acid was added to each well, shaken for 2 minutes, and placed in a 50-degree incubator for 30 minutes. Centrifuge, 2500 rpm for 10 minutes.
Take 70 μL of the supernatant and transfer to a 3635 UV plate, add 70 μL of the reaction solution, and shake for 2 minutes to make the reaction uniform. Use EnSpire (PE) to detect data with an OD of 480 nm. The cell culture plate 3903 was allowed to stand at room temperature for 30 minutes. 100 μL/well of the cell activity detecting reagent was added to the culture plate. Mix on a shaker for 2 minutes to induce cell lysis. The 96-well plate was allowed to stand at room temperature for 10 minutes to stabilize the luminescence signal. Paste the white base film on the bottom of the plate and tested with Flexstation3 plate (the relevant setting is: Illumination, integration time 500 ms). Record the experimental results obtained from the analysis.
The IC50 value is expressed in the following manner: […]

hIDO1 = molecular target: T2, hIDO1 (Homo sapiens, UniProt P14902); assay: IDO inhibition activity based on HEK293T cells transfected with hIDO1 plasmid; format: cell-based; settings: HEK293T cells transfected with hIDO1, 16 hours incubation, OD 480 nm; read-out: IDO inhibitory activity of HEK293T cells (IC50)
T2 construct: expressed in transfected cells; host or cells: HEK293T (293T) cells, transient transfection with Fugene 6
T2 sequence (P14902 whole entry): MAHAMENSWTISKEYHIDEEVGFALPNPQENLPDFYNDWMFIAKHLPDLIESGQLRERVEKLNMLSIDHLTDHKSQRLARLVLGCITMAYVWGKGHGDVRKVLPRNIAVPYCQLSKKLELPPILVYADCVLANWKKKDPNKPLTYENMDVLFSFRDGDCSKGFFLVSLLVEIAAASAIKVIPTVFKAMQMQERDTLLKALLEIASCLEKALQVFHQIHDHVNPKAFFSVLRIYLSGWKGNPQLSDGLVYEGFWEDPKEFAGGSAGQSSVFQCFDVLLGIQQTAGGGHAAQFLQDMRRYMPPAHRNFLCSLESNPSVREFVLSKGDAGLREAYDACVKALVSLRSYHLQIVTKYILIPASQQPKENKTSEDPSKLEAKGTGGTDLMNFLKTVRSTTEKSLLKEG
Method: 1. Test Method for IDO Inhibition Activity Based on HEK293T Cells:
The first step: cell transfection and plating. 5×10^6 293T cells were separately seeded in two T75 flasks and incubated overnight at 37° C. in a 5% CO2 incubator. […] of a mixture containing 1.5 μg of hIDO1 plasmid and 300 μL of opti-MEM was made into a mixture A; 18 μL of liposome fugene 6 was mixed with 300 μL of opti-MEM to prepare a mixture B, and allowed to stand at room temperature for 5 minutes. Mixture A and Mix B were mixed, placed at room temperature for 20 minutes, added to a 293T culture flask, and the other flask was used as a control and incubated overnight at 37° C. in a 5% CO2 incubator. The medium was discarded, digested with trypsin, and after digestion, the cells were neutralized with serum-containing medium, and the cells were blown to cause the cells to fall off. Pipette the cell suspension into a centrifuge tube and centrifuge at a speed of 800-1000 for 1-3 minutes. Aspirate the cell supernatant from the centrifuge tube. Add an appropriate volume of medium to the tube and gently blister to resuspend the cells. Count using a Vi-Cell XR cytometer. Adjust the cell suspension to the appropriate concentration. The cell suspension was added to a white-well 96-well plate at 80 μL/well. The second step: preparation and addition of the compound. Compounds were formulated in DMSO at 600 μM and the compounds were diluted in DMSO according to a multiple of the following table to give 6 concentration gradients of the compound. The 200× compound prepared in DMSO was formulated into a 10× dilution solution in proportion to the corresponding cell culture medium. Add 10 μL of 10× corresponding compound dilution and 10 μL of 10×TRP to each well, except for Min. Incubate for 16 hours in a 37° C. incubator. The third step: detection and analysis. Cell morphology was observed under an inverted microscope. 80 μL of the supernatant was added to a 3894 plate, and 10 μL of 6.1 N trichloroacetic acid was added to each well, shaken for 2 minutes, and placed in a 50-degree incubator for 30 minutes. Centrifuged at 2500 rpm for 10 minutes. Take 70 μL of the supernatant and transfer to a 3635 UV plate, add 70 μL of the reaction solution, and shake for 2 minutes to make the reaction uniform. Use EnSpire (PE) to detect data with an OD of 480 nm. The cell culture plate 3903 was allowed to stand at room temperature for 30 minutes. 100 μL/well of the cell activity detecting reagent was added to the culture plate. Mix on a shaker for 2 minutes to induce cell lysis. The 96-well plate was allowed to stand at room temperature for 10 minutes to stabilize the luminescence signal. Paste the white base film on the bottom of the plate and the plate was tested in Flexstation 3 (the relevant setting is: Illumination, integration time 500 ms). Record the experimental results obtained from the analysis.
The IC50 value is expressed by: A: IC50 value≤10 nM; B: 10 nM<IC50 value≤50 nM; C: 50 nM<IC50 value≤100 nM; D: IC50 value>100 nM.

T1 sequence (P14902 whole entry): as above

Compound | IC50 (IDO) [nM] | IC50 (hIDO1) [nM]
CC(C(=O)Nc1ccc(C#CC2CC2)cn1)[C@H]1C[C@H]2CC(c3ccnc4ccc(F)cc34)C[C@H]2C1 (stereo partly shown) [Compound 79] | > 100 | 10 to 50
O=C(C[C@@H]1C[C@@H]2C[C@@H](Oc3ccnc4ccccc34)C[C@@H]2C1)Nc1ccc(Cl)cc1 [Compound 51] | > 100 | > 100
O=C(C[C@@H]1C[C@@H]2C[C@H](c3ccnc4ccc(F)cc34)C[C@@H]2C1)Nc1ccc(Cl)cc1 [Compound 2] | 5 to 25 | 10 to 50
CC(C(=O)Nc1ccc(Cl)nc1)N1C[C@H]2C[C@@H](c3ccnc4ccc(F)cc34)C[C@H]2C1 (stereo partly shown) [Compound 45] | 5 to 25 | 10 to 50
O=C(C[C@@H]1C[C@@H]2C[C@@H](c3ccnc4ccc(F)cc34)C(O)[C@@H]2C1)Nc1ccc(Cl)cc1 (stereo partly shown) [Compound 50] | 5 to 25 | 10 to 50
CC(C(=O)Nc1cccc(Cl)c1)[C@H]1C[C@H]2C[C@@H](c3ccnc4ccc(F)cc34)C[C@H]2C1 (stereo partly shown) [Compound 7] | 5 to 25 | 10 to 50
CC(C(=O)Nc1ccc(Cl)cc1)[C@@H]1C[C@]2(C)C[C@H](c3ccnc4ccc(F)cc34)C[C@]2(C)C1 (stereo partly shown) [Compound 40] | ≤ 5 | 10 to 50
N#Cc1ccc(NC(=O)C2([C@@H]3C[C@H]4C[C@@H](c5ccnc6ccc(F)cc56)C[C@H]4C3)CC2)nc1 [Compound 94] | ≤ 5 | 10 to 50
C#Cc1ccc(NC(=O)C(C)[C@H]2C[C@H]3C[C@@H](c4ccnc5ccc(F)cc45)C[C@H]3C2)nc1 (stereo partly shown) [Compound 74] | ≤ 5 | 10 to 50
CC(C)(C(=O)Nc1ccc(Cl)cn1)[C@H]1C[C@H]2C[C@@H](c3ccnc4ccc(F)cc34)C[C@H]2C1 [Compound 84] | > 100 | ≤ 10
CC(C(=O)Nc1ccc(Cl)cc1)C1=C[C@H]2C[C@@H](c3ccnc4ccc(F)cc34)C[C@H]2C1 (stereo partly shown) [Compound 38] | ≤ 5 | ≤ 10
CC(C)(C(=O)Nc1ccc(C#N)cn1)[C@H]1C[C@H]2C[C@@H](c3ccnc4ccc(F)cc34)C[C@H]2C1 [Compound 88] | ≤ 5 | ≤ 10

Now from value to compound:

IC50 (IDO) [nM] | IC50 (hIDO1) [nM] | Compound
≤ 5 | 10 to 50 | CC(C(=O)Nc1ccc(Cl)nc1)[C@@H]1C[C@]2(C)C[C@H](c3ccnc4ccc(F)cc34)C[C@]2(C)C1 (stereo partly shown) [Compound 42]
≤ 5 | ≤ 10 | C/C(C(=O)Nc1ccc(Cl)cc1)=C1\C[C@@H]2C[C@H](c3ccnc4ccc(F)cc34)C[C@@H]2C1 [Compound 68]
≤ 5 | ≤ 10 | C#Cc1ccc(NC(=O)C(C)[C@H]2C[C@H]3C[C@@H](c4ccnc5ccc(F)cc45)C[C@H]3C2)cc1 (stereo partly shown) [Compound 34]
≤ 5 | 10 to 50 | CC(C(=O)Nc1ccc(Cl)nc1)[C@H]1C[C@H]2C[C@@H](c3ccnc4ccc(F)cc34)C[C@H]2C1 (stereo partly shown) [Compound 27]
≤ 5 | ≤ 10 | C#Cc1ccc(NC(=O)C[C@@H]2C[C@@H]3C[C@H](c4ccnc5ccc(F)cc45)C[C@@H]3C2)nc1 [Compound 67]
≤ 5 | ≤ 10 | C#Cc1ccc(NC(=O)C(C)(C)[C@H]2C[C@H]3C[C@@H](c4ccnc5ccc(F)cc45)C[C@H]3C2)cn1 [Compound 87]
≤ 5 | ≤ 10 | O=C(Nc1ccc(Cl)cn1)C1([C@@H]2C[C@H]3C[C@@H](c4ccnc5ccc(F)cc45)C[C@H]3C2)CC1 [Compound 92]
≤ 5 | ≤ 10 | CC(C(=O)Nc1ccc(C#N)nc1)[C@H]1C[C@H]2C[C@@H](c3ccnc4ccc(F)cc34)C[C@H]2C1 (stereo partly shown) [Compound 72]
